# Reference: PubChem BioAssay (NCI)
# Values joined by “and” are separate entries in the source; they are usually repeats but may differ in a detail not shown here. Equal values may be shown once.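 Each compound was tested at five concentrations against cells in 96-well plates for 48 hours. At the GI50, growth is halved. TGI denotes the concentration required for complete inhibition of growth.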 Where a SMILES comes first, the peptide text is derived from it. [ ]: non-standard residue; d: D form. The star is where a group is joined. NMeF = CN[C@@H](Cc1ccccc1)C(=O)O; NMeV = CN[C@H](C(=O)O)C(C)C; Boc = CC(C)(C)OC(=O)*; OBn = c1ccc(CO*)cc1
# Tests used:
# Assay in all cases: NCI tumour cell line growth inhibition, 48 h
# HOP-18 NSCLC = tested on: HOP-18 NSCLC
# DMS 273 small cell lung = tested on: DMS 273 small cell lung
# DMS 114 small cell lung = tested on: DMS 114 small cell lung
# LXFL 529 NSCLC = tested on: LXFL 529 NSCLC
# SNB-78 CNS = tested on: SNB-78 CNS
# XF 498 CNS = tested on: XF 498 CNS
# KM20L2 colon = tested on: KM20L2 colon
# MDA-N = tested on: MDA-N
# RXF-631 renal = tested on: RXF-631 renal
# SN12K1 renal = tested on: SN12K1 renal
# P388/ADR leukemia = tested on: P388/ADR leukemia
SMILES,TGI (HOP-18 NSCLC),TGI (DMS 273 small cell lung),TGI (DMS 114 small cell lung),TGI (LXFL 529 NSCLC),TGI (SNB-78 CNS),TGI (XF 498 CNS),TGI (KM20L2 colon),TGI (RXF-631 renal),further results
CC(C)[C@@H](C(=O)N1CCC[C@H]1C(=O)OCc1ccccc1)N(C)C(=O)[C@H](C(C)C)N(C)C(=O)[C@H](Cc1ccccc1)N(C)C(=O)[C@H](NC(=O)OC(C)(C)C)C(C)C (Boc-[dV][NMeF][NMeV][NMeV]P-OBn),> 100 µM,> 100 µM,> 100 µM,> 100 µM,> 100 µM,> 100 µM,> 100 µM,–,–
COC(=O)CS(=O)c1ccccc1 (stereo not drawn),–,84.4 µM,56.5 µM,> 100 µM,> 100 µM,> 100 µM,–,–,–
OCC1OC2OC3C(CO)OC(OC4C(CO)OC(OC5C(CO)OC(OC6C(CO)OC(OC7C(CO)OC(OC1C(O)C2O)C(O)C7O)C(O)C6O)C(O)C5O)C(O)C4O)C(O)C3O (stereo not drawn) (tested in a mixture with another compound),–,–,–,–,–,–,–,–,TGI (MDA-N): 39.9 µM
O=C(c1nc2ccc(Cl)cc2[nH]c1=O)C(O)c1ccc2c(c1)OCO2 (stereo not drawn),> 100 µM,> 100 µM,94.1 µM,> 100 µM,–,> 100 µM,> 100 µM,> 100 µM,–
CC(=O)c1ccc(NC(=O)C(=O)C(C(=O)c2ccc(Cl)c(Cl)c2)C2OC(=O)c3ccccc32)cc1 (stereo not drawn),90.6 µM,68.5 µM,46.3 µM,32.8 µM,> 100 µM,> 100 µM,> 100 µM,–,–
COC1OC(COS(=O)(=O)c2ccc(C)cc2)C(O)C(OS(=O)(=O)c2ccc(C)cc2)C1OS(=O)(=O)c1ccc(C)cc1 (stereo not drawn),> 100 µM,> 100 µM,> 100 µM,> 100 µM,> 100 µM,–,> 100 µM,> 100 µM,–
CC1=CC(=O)c2c(C=O)c(O)c(O)c(C(C)C)c2C1=O,58 µM,> 88.5 µM,51.5 µM,41.4 µM,> 100 µM,43.9 µM,> 100 µM,–,–
O=C(O)CP(=O)(O)O,–,–,–,–,–,–,–,–,TGI (MDA-N): > 100 µM
Cc1ccc(C(=O)C#Cc2c[nH]c(=O)[nH]c2=O)cc1,32.6 µM,38.6 µM,–,–,28.5 µM,–,–,–,–
COc1cc(Nc2nc3cc(C(F)(F)F)ccc3nc2-c2ccccc2)cc(OC)c1OC,–,> 100 µM,> 100 µM,> 100 µM,> 100 µM,55.2 µM,–,> 100 µM,–
Cc1cc(=O)oc2c(OS(C)(=O)=O)c(OS(C)(=O)=O)ccc12,–,–,–,–,–,–,–,–,TGI (MDA-N): > 100 µM
CCOC(=O)C(C(=O)OCC)=C1N[C@H](C(=O)OCC)CS1,> 100 µM,–,–,> 100 µM,> 100 µM,> 100 µM,> 100 µM,> 100 µM,–
CCCC(=O)Nc1ccc2c(c1)CN1C(=O)c3ccccc3C1=N2,–,–,–,–,–,–,–,–,TGI (MDA-N): > 100 µM
COc1ccc(C(=O)CC(=O)C(=O)Nc2ccc(C)c(C)c2)cc1,> 100 µM,> 100 µM,> 58.5 µM,> 100 µM,> 100 µM,–,> 100 µM,> 100 µM,–
O=C(O)c1cccc2cccc(C(=O)O)c12.[Hg],35.3 µM,31.4 µM,21.5 µM,28.1 µM,–,–,> 100 µM,–,GI50 (HOP-18 NSCLC): 18.6 µM; GI50 (DMS 273 small cell lung): 15.4 µM; GI50 (DMS 114 small cell lung): 3.8 µM; GI50 (LXFL 529 NSCLC): 14.6 µM; GI50 (KM20L2 colon): > 100 µM
COc1ccc(-c2cc(-c3cc(C)ccc3O)[nH]c(=O)n2)cc1,> 100 µM,> 100 µM,> 100 µM,> 100 µM,> 100 µM,–,> 100 µM,> 100 µM,–
CCCc1nc(NC#N)nc(C(=O)NC23CC4CC(CC(C4)C2)C3)c1C,> 100 µM,> 100 µM,> 100 µM,> 100 µM,> 100 µM,–,> 100 µM,–,–
NCCCNCCSSC/C=C\CSSCCNCCCN,> 100 µM,> 100 µM,> 100 µM,> 100 µM and 88.4 µM,> 100 µM,> 100 µM,> 100 µM,–,GI50 (SNB-78 CNS): 55 µM and 24.8 µM; GI50 (KM20L2 colon): > 100 µM and 38.9 µM
CCC1CC(C)=CCN1S(=O)(=O)c1ccc(C)cc1 (stereo not drawn),–,67.9 µM,53.7 µM,> 100 µM,–,–,36 µM,–,–
COc1ccc(NC(=O)CC(=O)N2N=C(N(CCC#N)c3cccc(C)c3)CC2c2ccccc2)cc1 (stereo not drawn),> 100 µM,> 100 µM,–,> 100 µM,> 100 µM,–,> 100 µM,–,–
O=NN/C(=C1\Nc2ccc([N+](=O)[O-])cc2NC1=O)C(O)c1ccc([N+](=O)[O-])cc1 (stereo not drawn),–,> 100 µM,> 100 µM,> 100 µM,> 100 µM,> 100 µM,> 100 µM,> 100 µM,–
CC(C(=O)O)/C(=C\c1ccc2c(c1)OCO2)C(=O)O (stereo not drawn),> 100 µM,> 100 µM,> 100 µM,> 100 µM,–,> 100 µM,> 100 µM,> 100 µM,TGI (MDA-N): > 100 µM
COC1=C2C[C@@H](C)C[C@@H](OC)[C@@H](O)[C@H](C)/C=C(\C)[C@@H](OC(N)=O)[C@H](OC)/C=C\C=C(/C)C(=O)NC(=CC1=O)C2=O,4.92 µM and 1.28 µM,2.05 µM,2.14 µM,14.1 µM,11.7 µM and 7.42 µM,1.13 µM and 0.853 µM,0.99 µM and 0.886 µM,3.35 µM,GI50 (MDA-N): 0.00577 µM; TGI (MDA-N): 8.51 µM; GI50 (HOP-18 NSCLC): 0.0288 µM; TGI (SN12K1 renal): 2.51 µM; TGI (P388/ADR leukemia): 1.47 µM; GI50 (SNB-78 CNS): 0.859 µM; GI50 (XF 498 CNS): 0.0356 µM; GI50 (KM20L2 colon): < 0.0347 µM
